# In patent publication US12123813B2, “Polymer stabilization of chromogen solutions” (Ventana Medical Systems, Inc., priority 2012, dated 2024):
# Structures can show the parent of a compound that is named as a salt.
# Tests used:
# [1] = Polymer screening: DAB sulfate precipitation after KHSO4 addition (visual); assay type: physicochemical; settings: additive in DAB chromogen solution
# Protocol: One embodiment of a DAB base solution comprises DAB chromogen, one or more enhancers, and a stabilizer. […] Exemplary base solutions comprise 5.5 mM DAB, 10 mM imidazole, 10 mM 2-hydroxypyridine, and 1 mM sodium metabisulfite, with a pH of 2.5±0.1. In one embodiment, these compositions were tested using KHSO4 concentrations ranging from 0 to about 10 mM; more typically 0, 1.37, 2.75 and 8.0 mM, with DAB sulfate precipitation being induced at 4° C. overnight.
# Polymers were screened for their impact on DAB sulfate precipitation formation by combining an enhanced DAB base solution containing a set amount of the polymer with select molar ratios of potassium hydrogen sulfate, KHSO4, relative to DAB. The enhanced DAB base solution used comprised 5.5 mM DAB·4HCl, 10 mM imidazole, 10 mM 2-hydroxypyridine, 1 mM sodium metabisulfite and 0.05% w/v Brij 35 at pH=2.3±0.1. The potassium hydrogen sulfate concentrations screened were 2.75 and 8.0 mM. […] Solutions were monitored for physical changes (i.e. color or precipitation).
# Candidate polymers were screened for their impact on DAB sulfate precipitation formation by combining an enhanced DAB base solution containing a set amount of the polymer with select molar ratios of potassium hydrogen sulfate, KHSO4, relative to DAB. […] Solutions were monitored for physical changes (i.e. color or precipitation).
# [2] = Water solubility of DAB-polymer complex in chromogen solution; assay type: physicochemical
# Description: Sulfate and sulfonate polymers are believed to form a DAB-polymer salt complex where the hydrophilic polymer backbone helps maintain water solubility.
SMILES,inhibition of DAB sulfate precipitation (in words) [1],formation of water soluble DAB-polymer complex (in words) [2]
"CC(O)CO (centres unmarked) [1,2-propanediol]",failed to inhibit DAB sulfate precipitation,
NCCOS(=O)(=O)O [2-aminoethylhydrogen sulfate],,did not form water soluble DAB complexes
